Measured values reported in patent US4904669A, “Thiazolo/4,5-c/quinolines as major tranquilizers” (EGIS Gyogyszergyar, priority 1985, dated 1990).

What was measured:
[1] = test system: conditioned reflex (CR) / unconditioned reflex (UR); experiment: Screening test, learning and retention during one session conditioning; format: in vivo, rats
Method: I was elaborated for studing learning and retention of rats during one session conditioning.
During conditioning rats are trained to jump onto the top of glass cylinder by the electric foot-shock (110 V). The escape reaction (unconditioned reflex, UR) is paired with a bell as conditioned stimulus. The criterion of learning is that conditioned reflex (CR) should be elicited 10 times with 10 s intervals without reinforcement. Retention of CR is taken positive when 24 h following the experiment CR can be elicited. In these experiments animals are distributed into 4 categories on the basis of their learning ability.

[2] = test system: conditioned avoidance reflex (CAR); experiment: Shuttle-box, acquisition of two-way conditioned avoidance reflex (CAR); format: in vivo
Method: The acquisition of a two-way conditioned avoidance reflex (CAR) was analyzed in the shuttle-box during 5 consecutive days.
The instrument was constructed by the Research Institute for Electrical Industry (Hungary). It consists of six boxes, each is separated inside by a barrier with a small gate in the middle. […] They were given 100 trials per day. One trial consisted of 15 s intertrial interval, followed by 15 s CS. The last 5 s of CS overlapped the […]. At each learning session the number of CAR and intersignal reactions (IR) was automatically counted and evaluated by multiway analysis of variance (ANOVA).

[3] = test system: Benzodiazepine (BZD) receptor; experiment: Benzodiazepine (BZD) receptor binding, displacement of 3H-diazepam; settings: crude cortical membrane, 1 hr at 0° C., pH 6.8; control drug
Method: 10. For the Studies of Benzodiazepine (BZD) Receptor Binding crude cortical membrane preparation was used. 2/ μM ^3 H-diazepam was incubated with the membrane for 1 hr at 0° C. in TRIS-citrate buffer, pH 6.8. Specific binding was determined in the presence of 10/ μM diazepam. In displacement studies chlordiazepoxid was used as control drug.

[4] = test system: pain reactions; experiment: Hot plate test; format: in vivo, rats; settings: Rattus norvegicus, 56° C. plate, 1 h after administration
Method: The method of Woolfe and McDonald (1944) modified by Porszasz and Herr (1950) was used. The effect of each dose of the drugs was checked on a group of 10 rats. The experiments were performed on metal plates maintained at 56° C. The latency time of pain reactions was determined prior to and 1 h after the administration of the test compound. It was regarded as 100% effect if the reaction time was prolonged by more than 2.5 times the control value.

[5] = test system: writhing; experiment: Writhing test (peritoneal), acetic acid; format: in vivo; settings: Mus musculus, mice, acetic acid i.p.
Method: The method originally described by […] (1956) for rats modified by Witkin et al. (1961) and Koster and Anderson (1959), respectively, for mice was applied. Each dose was administered to a group of ten mice and after 20 min. 60 mg/kg of 0.6% acetic acid solution was injected i.p. As a result of chemical irritation of the peritoneum a characteristic writhing can be observed in 90% of control animals. Ten animals treated with compounds under test were kept under observation for 20 min. following i.p. injection of acid. The analgetic effect of individual doses was expressed in per cent: [formula] The denominator was taken as 90% on the basis of preliminary control examination and the […] literature.

[6] = Acute toxicity (Litchfield and Wilcoxon); settings: rat, in vivo, deaths within 48 h

## CNC1=Nc2ccc(Cl)cc2C(c2ccccc2)=[N+]([O-])C1 [Chlordiazepoxide]
[1]; 10 mg/kg
  inhibition of development of conditioned reflex: does not influence
[2]; 10 mg/kg, in words
  number of negative responses (f): increased
[2]; 10 and 5 mg/kg
  acquisition of conditioned reflex: unchanged
[2]; 10 and 5 mg/kg, in words
  intersignal reactions (IR): unchanged
[2]; s.c., 5 mg/kg, day 1
  intersignal reactions (IR): 10.8
  negative responses (-f): 11.8
  positive responses (F), acquisition of conditioned reflex: 23.1
[2]; s.c., 5 mg/kg, day 2
  intersignal reactions (IR): 14.0
  negative responses (-f): 9.1
  positive responses (F), acquisition of conditioned reflex: 38.7
[2]; s.c., 5 mg/kg, day 3
  intersignal reactions (IR): 8.9
  negative responses (-f): 10.2
  positive responses (F), acquisition of conditioned reflex: 35.6
[2]; s.c., 5 mg/kg, day 4
  intersignal reactions (IR): 6.7
  negative responses (-f): 14.9
  positive responses (F), acquisition of conditioned reflex: 41.1
[2]; s.c., 5 mg/kg, day 5
  intersignal reactions (IR): 4.2
  negative responses (-f): 13.0
  positive responses (F), acquisition of conditioned reflex: 50.8
[2]; s.c., 10 mg/kg, day 1
  intersignal reactions (IR): 10.8
  negative responses (-f): 32.7
  positive responses (F), acquisition of conditioned reflex: 19.9
[2]; s.c., 10 mg/kg, day 2
  intersignal reactions (IR): 14.7
  negative responses (-f): 22.8
  positive responses (F), acquisition of conditioned reflex: 37.9
[2]; s.c., 10 mg/kg, day 3
  intersignal reactions (IR): 8.1
  negative responses (-f): 31.8
  positive responses (F), acquisition of conditioned reflex: 33.7
[2]; s.c., 10 mg/kg, day 4
  intersignal reactions (IR): 6.3
  negative responses (-f): 36.5
  positive responses (F), acquisition of conditioned reflex: 35.6
[2]; s.c., 10 mg/kg, day 5
  intersignal reactions (IR): 6.1
  negative responses (-f): 40.8
  positive responses (F), acquisition of conditioned reflex: 41.2
[2]; s.c., 25 mg/kg, day 1
  intersignal reactions (IR): 6.8
  negative responses (-f): 74.0
  positive responses (F), acquisition of conditioned reflex: 9.7
[2]; s.c., 25 mg/kg, day 2
  intersignal reactions (IR): 7.3
  negative responses (-f): 67.5
  positive responses (F), acquisition of conditioned reflex: 12.2
[2]; s.c., 25 mg/kg, day 3
  intersignal reactions (IR): 6.2
  negative responses (-f): 67.0
  positive responses (F), acquisition of conditioned reflex: 17.9
[2]; s.c., 25 mg/kg, day 4
  intersignal reactions (IR): 8.2
  negative responses (-f): 65.6
  positive responses (F), acquisition of conditioned reflex: 20.0
[2]; s.c., 25 mg/kg, day 5
  intersignal reactions (IR): 6.0
  negative responses (-f): 59.8
  positive responses (F), acquisition of conditioned reflex: 21.4
[3]
  displacement of 3H-diazepam on the receptor: displaced ^3 H-diazepam on the receptor in concentration dependent manner

## c1ccc2c(c1)ncc1ncsc12 [Thiazolo[4,5-c]quinoline-ethanesulfonate, thiazolo[4,5-c]quinoline-ethanesulfonate]
[4]; po
  ED50: 72 mg/kg
[4]; sc
  ED50: 8 mg/kg
[5]; po
  ED50: 70 mg/kg
[5]; sc
  ED50: 56 mg/kg
[2]; s.c., 10 mg/kg, day 1
  intersignal reactions (IR): 6.5
  negative responses (-f): 17.2
  positive responses (F), acquisition of conditioned reflex: 23.5
[2]; s.c., 10 mg/kg, day 2
  intersignal reactions (IR): 8.8
  negative responses (-f): 7.1
  positive responses (F), acquisition of conditioned reflex: 44.2
[2]; s.c., 10 mg/kg, day 3
  intersignal reactions (IR): 5.5
  negative responses (-f): 2.4
  positive responses (F), acquisition of conditioned reflex: 51.6
[2]; s.c., 10 mg/kg, day 4
  intersignal reactions (IR): 8.2
  negative responses (-f): 1.2
  positive responses (F), acquisition of conditioned reflex: 66.8
[2]; s.c., 10 mg/kg, day 5
  intersignal reactions (IR): 6.3
  negative responses (-f): 6.2
  positive responses (F), acquisition of conditioned reflex: 65.1
[2]; s.c., 25 mg/kg, day 1
  intersignal reactions (IR): 11.1
  negative responses (-f): 70.3
  positive responses (F), acquisition of conditioned reflex: 8.1
[2]; s.c., 25 mg/kg, day 2
  intersignal reactions (IR): 8.8
  negative responses (-f): 41.8
  positive responses (F), acquisition of conditioned reflex: 25.3
[2]; s.c., 25 mg/kg, day 3
  intersignal reactions (IR): 7.0
  negative responses (-f): 40.4
  positive responses (F), acquisition of conditioned reflex: 23.3
[2]; s.c., 25 mg/kg, day 4
  intersignal reactions (IR): 10.3
  negative responses (-f): 46.3
  positive responses (F), acquisition of conditioned reflex: 30.8
[2]; s.c., 25 mg/kg, day 5
  intersignal reactions (IR): 4.0
  negative responses (-f): 61.3
  positive responses (F), acquisition of conditioned reflex: 15.5
[2]; s.c., 50 mg/kg, day 1
  intersignal reactions (IR): 9.2
  negative responses (-f): 66.8
  positive responses (F), acquisition of conditioned reflex: 8.9
[2]; s.c., 50 mg/kg, day 2
  intersignal reactions (IR): 7.1
  negative responses (-f): 35.2
  positive responses (F), acquisition of conditioned reflex: 24.5
[2]; s.c., 50 mg/kg, day 3
  intersignal reactions (IR): 4.2
  negative responses (-f): 51.5
  positive responses (F), acquisition of conditioned reflex: 20.8
[2]; s.c., 50 mg/kg, day 4
  intersignal reactions (IR): 3.3
  negative responses (-f): 61.8
  positive responses (F), acquisition of conditioned reflex: 14.6
[2]; s.c., 50 mg/kg, day 5
  intersignal reactions (IR): 2.6
  negative responses (-f): 72.8
  positive responses (F), acquisition of conditioned reflex: 16.2
[6]; iv
  LD50 at 48 h: 51 mg/kg
[6]; po, starved 16 h
  LD50 at 48 h: 290 mg/kg
[6]; sc
  LD50 at 48 h: 280 mg/kg

## Cl.c1ccc2c(c1)ncc1ncsc12 [Thiazolo[4,5-c]quinoline-hydrochloride, thiazolo[4,5-c]quinoline-hydrochloride]
[4]; po
  ED50: 60 mg/kg
[4]; sc
  ED50: 7.5 mg/kg
[1]; 10 mg/kg
  inhibition of development of conditioned reflex: strong inhibition
[1]; 25 mg/kg
  inhibition of development of conditioned reflex: complete inhibition
[5]; po
  ED50: 82 mg/kg
[5]; sc
  ED50: 32 mg/kg
[6]; iv
  LD50 at 48 h: 55 mg/kg
[6]; po, starved 16 h
  LD50 at 48 h: 350 mg/kg
[6]; sc
  LD50 at 48 h: 260 mg/kg

## O=C(CCCN1CCC(O)(c2ccc(Cl)cc2)CC1)c1ccc(F)cc1 [haloperidol, reference compound]
[1]; 0.025 mg/kg
  inhibition of developing conditioned reflex: strong inhibition
